Results published in US10370412B2, “Beta-hairpin peptidomimetics” (Polyphor AG, priority 2013, dated 2019).
Where a SMILES comes first, the peptide text is derived from it. [ ]: non-standard residue; d: D form. Cha = N[C@@H](CC1CCCCC1)C(=O)O; Chg = N[C@H](C(=O)O)C1CCCCC1; Tle = CC(C)(C)[C@H](N)C(=O)O; dDab = NCC[C@@H](N)C(=O)O; Orn = NCCC[C@H](N)C(=O)O; Dab = NCC[C@H](N)C(=O)O

tested on: human red blood cells (hRBC); assay type: cell-based; details: red cells of human, 1 h
Method: The peptides were tested for their hemolytic activity against human red blood cells (hRBC). Fresh hRBC were washed three times with phosphate buffered saline (PBS) and centrifuged for 10 min at 2000×g. Compounds (100 μg/ml) were incubated with 20% hRBC (v/v) for 1 h at 37° C. and shaking at 300 rpm. The final erythrocyte concentration was approximately 0.9×10^9 cells/ml. A value of 0% and 100% cell lyses, respectively, was determined by incubation of hRBC in the presence of PBS containing 0.001% acetic acid and 2.5% Triton X-100 in H2O, respectively. The samples were centrifuged, the supernatants were 8-fold diluted in PBS buffer and the optical densities (OD) were measured at 540 nm. The 100% lyses value (OD540H2O) gave an OD540 of approximately 0.5-1.0. Percent hemolysis was calculated as follows: (OD540peptide/OD540H2O)×100%.

First: C[C@@H]1NC(=O)[C@H](CC2CCCCC2)NC(=O)[C@H](CCN)NC(=O)[C@H](Cc2c[nH]c3ccccc23)NC(=O)[C@H](CCN)NC(=O)[C@@H](CCN)NC(=O)[C@H](CCCN)NC(=O)[C@H](CCN)NC(=O)[C@H](C(C)(C)C)NC(=O)[C@H](Cc2c[nH]c3ccccc23)NC(=O)[C@H](Cc2c[nH]c3ccccc23)NC(=O)[C@@H]2CCCN2C(=O)[C@H]2CCCN2C(=O)[C@H](CO)NC1=O [compound 12, cyclo(-Trp-Trp-tBuGly-Dab-Orn-^DDab-Dab-Trp-Dab-Cha-Ala-Ser-^DPro-Pro-)] (cyclo(WW[Tle][Dab][Orn][dDab][Dab]W[Dab][Cha]AS[dP]P))
Second: CC(C)C[C@@H]1NC(=O)[C@@H]2CCCN2C(=O)[C@H]2CCCN2C(=O)[C@H](CO)NC(=O)[C@H](C)NC(=O)[C@H](C(C)(C)C)NC(=O)[C@H](CCN)NC(=O)[C@H](Cc2c[nH]c3ccccc23)NC(=O)[C@H](CCN)NC(=O)[C@@H](CCN)NC(=O)[C@H](CCCN)NC(=O)[C@H](CCN)NC(=O)[C@H](Cc2c[nH]c3ccccc23)NC(=O)[C@H](Cc2c[nH]c3ccccc23)NC1=O [compound 27, cyclo(-Leu-Trp-Trp-Dab-Orn-^DDab-Dab-Trp-Dab-tBuGly-Ala-Ser-^DPro-Pro-)] (cyclo(LWW[Dab][Orn][dDab][Dab]W[Dab][Tle]AS[dP]P))
The “Hemolysis at 100 μg/ml” value of the first is higher: 3% for the first, 0% for the second.

Compared with `CC(C)C[C@@H]1NC(=O)[C@H](Cc2c[nH]c3ccccc23)NC(=O)[C@H](Cc2c[nH]c3ccccc23)NC(=O)[C@@H]2CCCN2C(=O)[C@H]2CCCN2C(=O)[C@H](C(C)C)NC(=O)[C@H](C)NC(=O)[C@H](C(C)C)NC(=O)[C@H](CCN)NC(=O)[C@H](Cc2c[nH]c3ccccc23)NC(=O)[C@H](CCN)NC(=O)[C@@H](CCN)NC(=O)[C@H](CCCN)NC(=O)[C@H](CCN)NC1=O` [compound 13, cyclo(-Trp-Trp-Leu-Dab-Orn-^DDab-Dab-Trp-Dab-Val-Ala-Val-^DPro-Pro-)] (cyclo(WWL[Dab][Orn][dDab][Dab]W[Dab]VAV[dP]P)), `CC(C)C[C@@H]1NC(=O)[C@@H]2CCCN2C(=O)[C@H]2CCCN2C(=O)[C@H](CO)NC(=O)[C@H](C)NC(=O)[C@H](C(C)(C)C)NC(=O)[C@H](CCN)NC(=O)[C@H](Cc2c[nH]c3ccccc23)NC(=O)[C@H](CCN)NC(=O)[C@@H](CCN)NC(=O)[C@H](CCCN)NC(=O)[C@H](CCN)NC(=O)[C@H](Cc2ccc(O)cc2)NC(=O)[C@H](Cc2c[nH]c3ccccc23)NC1=O` [compound 28, cyclo(-Leu-Trp-Tyr-Dab-Orn-^DDab-Dab-Trp-Dab-tBuGly-Ala-Ser-^DPro-Pro-)] (cyclo(LWY[Dab][Orn][dDab][Dab]W[Dab][Tle]AS[dP]P)) is lower in “Hemolysis at 100 μg/ml” value: 2% for the first, 1% for the second.

`C[C@@H]1NC(=O)[C@H](C(C)(C)C)NC(=O)[C@H](CCN)NC(=O)[C@H](Cc2c[nH]c3ccccc23)NC(=O)[C@H](CCN)NC(=O)[C@H](CCN)NC(=O)[C@H](CCCN)NC(=O)[C@H](CCN)NC(=O)[C@H](Cc2ccc(O)cc2)NC(=O)[C@H](Cc2c[nH]cn2)NC(=O)[C@H](Cc2c[nH]c3ccccc23)NC(=O)[C@@H]2CCCN2C(=O)[C@H]2CCCN2C(=O)[C@H](CO)NC1=O` [compound 18, cyclo(-Trp-His-Tyr-Dab-Orn-Dab-Dab-Trp-Dab-tBuGly-Ala-Ser-^DPro-Pro-)] (cyclo(WHY[Dab][Orn][Dab][Dab]W[Dab][Tle]AS[dP]P)) and `CC(C)C[C@@H]1NC(=O)[C@@H]2CCCN2C(=O)[C@H]2CCCN2C(=O)[C@H](CO)NC(=O)[C@H](C)NC(=O)[C@H](Cc2c[nH]c3ccccc23)NC(=O)[C@H](CCN)NC(=O)[C@H](Cc2c[nH]c3ccccc23)NC(=O)[C@H](CCN)NC(=O)[C@@H](CCN)NC(=O)[C@H](CCCN)NC(=O)[C@H](CCN)NC(=O)[C@H](Cc2ccc(O)cc2)NC(=O)[C@H](Cc2c[nH]cn2)NC1=O` [compound 29, cyclo(-Leu-His-Tyr-Dab-Orn-^DDab-Dab-Trp-Dab-Trp-Ala-Ser-^DPro-Pro-)] (cyclo(LHY[Dab][Orn][dDab][Dab]W[Dab]WAS[dP]P)) are the same in “Hemolysis at 100 μg/ml” value: 0% for the first, 0% for the second.

Compared with `C[C@@H]1NC(=O)[C@H](C(C)(C)C)NC(=O)[C@H](CCN)NC(=O)[C@H](Cc2c[nH]c3ccccc23)NC(=O)[C@H](CCN)NC(=O)[C@H](CCN)NC(=O)[C@H](CCCN)NC(=O)[C@H](CCN)NC(=O)[C@H](CC2CCCCC2)NC(=O)[C@H](Cc2c[nH]cn2)NC(=O)[C@H](Cc2c[nH]c3ccccc23)NC(=O)[C@@H]2CCCN2C(=O)[C@H]2CCCN2C(=O)[C@H](CO)NC1=O` [compound 19, cyclo(-Trp-His-Cha-Dab-Orn-Dab-Dab-Trp-Dab-tBuGly-Ala-Ser-^DPro-Pro-)] (cyclo(WH[Cha][Dab][Orn][Dab][Dab]W[Dab][Tle]AS[dP]P)), `CC(C)C[C@@H]1NC(=O)[C@@H]2CCCN2C(=O)[C@H]2CCCN2C(=O)[C@H](CO)NC(=O)[C@H](C)NC(=O)[C@H](C(C)(C)C)NC(=O)[C@H](CCN)NC(=O)[C@H](Cc2c[nH]c3ccccc23)NC(=O)[C@H](CCN)NC(=O)[C@@H](CCN)NC(=O)[C@H](CCCN)NC(=O)[C@H](CCN)NC(=O)[C@H](Cc2c[nH]c3ccccc23)NC(=O)[C@H](Cc2c[nH]cn2)NC1=O` [compound 24, cyclo(-Leu-His-Trp-Dab-Orn-^DDab-Dab-Trp-Dab-tBuGly-Ala-Ser-^DPro-Pro-)] (cyclo(LHW[Dab][Orn][dDab][Dab]W[Dab][Tle]AS[dP]P)) is higher in “Hemolysis at 100 μg/ml” value: 0% for the first, 1% for the second.

`CC[C@H](C)[C@@H]1NC(=O)[C@@H]2CCCN2C(=O)[C@H]2CCCN2C(=O)[C@H](CO)NC(=O)[C@H](C)NC(=O)[C@H](C(C)(C)C)NC(=O)[C@H](CCN)NC(=O)[C@H](Cc2c[nH]c3ccccc23)NC(=O)[C@H](CCN)NC(=O)[C@@H](CCN)NC(=O)[C@H](CCCN)NC(=O)[C@H](CCN)NC(=O)[C@H](Cc2ccc(O)cc2)NC(=O)[C@H](Cc2c[nH]cn2)NC1=O` [compound 20, cyclo(-Ile-His-Tyr-Dab-Orn-^DDab-Dab-Trp-Dab-tBuGly-Ala-Ser-^DPro-Pro-)] (cyclo(IHY[Dab][Orn][dDab][Dab]W[Dab][Tle]AS[dP]P)) and `CC(C)C[C@@H]1NC(=O)[C@@H]2CCCN2C(=O)[C@H]2CCCN2C(=O)[C@H](CO)NC(=O)[C@H](C)NC(=O)[C@H](C(C)(C)C)NC(=O)[C@H](CCN)NC(=O)[C@H](Cc2c[nH]c3ccccc23)NC(=O)[C@H](CCN)NC(=O)[C@@H](CCN)NC(=O)[C@H](CCCCN)NC(=O)[C@H](CCN)NC(=O)[C@H](Cc2ccc(O)cc2)NC(=O)[C@H](Cc2c[nH]cn2)NC1=O` [compound 25, cyclo(-Leu-His-Tyr-Dab-Lys-^DDab-Dab-Trp-Dab-tBuGly-Ala-Ser-^DPro-Pro-)] (cyclo(LHY[Dab]K[dDab][Dab]W[Dab][Tle]AS[dP]P)) are the same in “Hemolysis at 100 μg/ml” value: 0% for the first, 0% for the second.

`CC[C@H](C)[C@@H]1NC(=O)[C@H](CCN)NC(=O)[C@H](Cc2c[nH]c3ccccc23)NC(=O)[C@H](CCN)NC(=O)[C@@H](CCN)NC(=O)[C@H](CCCN)NC(=O)[C@H](CCN)NC(=O)[C@H](Cc2ccc(O)cc2)NC(=O)[C@H](Cc2c[nH]cn2)NC(=O)[C@H]([C@@H](C)CC)NC(=O)[C@@H]2CCCN2C(=O)[C@H]2CCCN2C(=O)[C@H](CO)NC(=O)[C@H](C)NC1=O` [compound 21, cyclo(-Ile-His-Tyr-Dab-Orn-^DDab-Dab-Trp-Dab-Ile-Ala-Ser-^DPro-Pro-)] (cyclo(IHY[Dab][Orn][dDab][Dab]W[Dab]IAS[dP]P)) and `CC(C)C[C@@H]1NC(=O)[C@@H]2CCCN2C(=O)[C@H]2CCCN2C(=O)[C@H](CO)NC(=O)[C@H](CO)NC(=O)[C@H](C(C)(C)C)NC(=O)[C@H](CCN)NC(=O)[C@H](Cc2c[nH]c3ccccc23)NC(=O)[C@H](CCN)NC(=O)[C@@H](CCN)NC(=O)[C@H](CCCN)NC(=O)[C@H](CCN)NC(=O)[C@H](Cc2ccc(O)cc2)NC(=O)[C@H](Cc2c[nH]cn2)NC1=O` [compound 30, cyclo(-Leu-His-Tyr-Dab-Orn-^DDab-Dab-Trp-Dab-tBuGly-Ser-Ser-^DPro-Pro-)] (cyclo(LHY[Dab][Orn][dDab][Dab]W[Dab][Tle]SS[dP]P)) are the same in “Hemolysis at 100 μg/ml” value: 1% for the first, 1% for the second.

Compared with `CC(C)C[C@@H]1NC(=O)[C@@H]2CCCN2C(=O)[C@H]2CCCN2C(=O)[C@H](CO)NC(=O)[C@H](C)NC(=O)[C@H](C2CCCCC2)NC(=O)[C@H](CCN)NC(=O)[C@H](Cc2c[nH]c3ccccc23)NC(=O)[C@H](CCN)NC(=O)[C@H](CCN)NC(=O)[C@H](CCCN)NC(=O)[C@H](CCN)NC(=O)[C@H](Cc2ccc(O)cc2)NC(=O)[C@H](Cc2c[nH]cn2)NC1=O` [compound 22, cyclo(-Leu-His-Tyr-Dab-Orn-Dab-Dab-Trp-Dab-Chg-Ala-Ser-^DPro-Pro-)] (cyclo(LHY[Dab][Orn][Dab][Dab]W[Dab][Chg]AS[dP]P)), `CC(C)C[C@@H]1NC(=O)[C@@H]2CCCN2C(=O)[C@H]2CCCN2C(=O)[C@H](CO)NC(=O)[C@H](C)NC(=O)[C@H](C2CCCCC2)NC(=O)[C@H](CCN)NC(=O)[C@H](Cc2c[nH]c3ccccc23)NC(=O)[C@H](CCN)NC(=O)[C@@H](CCN)NC(=O)[C@H](CCCN)NC(=O)[C@H](CCN)NC(=O)[C@H](Cc2ccc(O)cc2)NC(=O)[C@H](Cc2c[nH]cn2)NC1=O` [compound 23, cyclo(-Leu-His-Tyr-Dab-Orn-^DDab-Dab-Trp-Dab-Chg-Ala-Ser-^DPro-Pro-)] (cyclo(LHY[Dab][Orn][dDab][Dab]W[Dab][Chg]AS[dP]P)) is higher in “Hemolysis at 100 μg/ml” value: 0% for the first, 3% for the second.

In the case of `CC(C)C[C@@H]1NC(=O)[C@@H]2CCCN2C(=O)[C@H]2CCCN2C(=O)[C@H](CO)NC(=O)[C@H](C)NC(=O)[C@H](CC2CCCCC2)NC(=O)[C@H](CCN)NC(=O)[C@H](Cc2c[nH]c3ccccc23)NC(=O)[C@H](CCN)NC(=O)[C@@H](CCN)NC(=O)[C@H](CCCN)NC(=O)[C@H](CCN)NC(=O)[C@H](Cc2ccc(O)cc2)NC(=O)[C@H](Cc2c[nH]c3ccccc23)NC1=O` [compound 26, cyclo(-Leu-Trp-Tyr-Dab-Orn-^DDab-Dab-Trp-Dab-Cha-Ala-Ser-^DPro-Pro-)] (cyclo(LWY[Dab][Orn][dDab][Dab]W[Dab][Cha]AS[dP]P)), the “Hemolysis at 100 μg/ml” value is reported as 1%.
